# Test results from US20240226342A1, “REACTIVE OXYGEN SPECIES IMAGING AGENTS” (Washington University, priority 2022, published 2024).
# “Also recorded” adds a separate entry of the source. Where two headings read alike, the source gives them in different places.
# How the values were obtained:
# [1] = normal mice, cited from earlier work
# [2] = Fluorescence emission of the probe before and after oxidation; type: physicochemical
# [3] = tested on: microglial cells and neurons in brain sections; test: Ex vivo fluorescence of brain sections after tail-vein injection of unlabeled SLN128 into 3-NP treated mice; type: in vivo; settings: anti-IBA1 and anti-NeuN
# Procedure: FIG. 11 includes images showing post PET/CT imaging in accordance with the present disclosure. SLN128 (100 μL; 1 mg/mL) was injected through tail-vein into 3NP-or saline treated mice, and brain tissue was processed as described in FIG. 10A-FIG. 10D.
# Systemic administration of LPS induces oxidative stress and resulting a release of inflammatory cytokines, sustained microglial activation, and neuronal cell loss in brain areas, such as the hippocampus, cerebral cortex, substantia nigra, ventral tegmental area, and thalamus, alters the levels of neurotransmitters in adult animals, and cerebellum. Thus LPS-induced inflammation provides a useful rodent model for preclinical imaging of ^18F-SLN-128. […] Finally, the brain uptake (see e.g., FIG. 9C) derived from PET imaging also correlated with 60 min post imaging quantified uptake (see e.g., FIG. 9D) indicating potential of the radiotracer for imaging endotoxin mediated brain inflammation in vivo. Mitochondrial dysfunction is a major event in the pathogenesis of Huntington disease (HD). It has also been reported that systemic 3-NP administration leads to oxidized proteins in the striatum, as well as a massive loss of striatal neurons. To evaluate potential of ^18F-SLN-128 PET imaging for 3NP-induced ROS-mediated neurodegeneration in mice, PET/CT imaging was performed.
# [4] = tested on: human glioblastoma U87 cells; test: Live-cell fluorescence imaging of cellular accumulation in U87 cells; type: cell-based; settings: for intracellular localization: U87 cells, 100× objective, with mitotracker / mitoSOX
# Procedure: FIG. 4 includes images showing cellular accumulation of SLN128 (20 nM) in human glioblastoma (U87) cells using live-cell fluorescence imaging: intracellular localization in accordance with the present disclosure. SLN128 was incubated at 37° C. for 1 h with either mitotracker red/or mitoSOX Deep Red in human U87MG cells. Images were acquired using a 100×objective.
# FIG. 5 includes images showing cellular accumulation of SLN128 (20 nM) in human glioblastoma (U87) cells using live-cell fluorescence imaging in accordance with the present disclosure. SLN128 was incubated for 1 h either with media (control), LPS treated (1 μg/mL; 3 h) or 3-nitropropionic acid (3-NP; 10 μg/mL) human U87MG cells: Images were acquired using a 20×objective.
# FIG. 6 is a bar graph showing cellular accumulation of SLN128 in either serum and glucose deprived- or LPS or 3 NP-treated U87 cells in either presence or absence of resveratrol (10 μM) in accordance with the present disclosure. Images were acquired using a 20×objective (all panels represent same magnification) in live human U87 cells. While U87 control cells were plated under normal conditions, both serum-and glucose-deprived (Starvation), and LPS/3-NP treated cells were allowed to recover in presence of resveratrol) for 24 h and treated with SLN-128(20 nM) for 60 min, cell uptake was evaluated via live-cell imaging, and quantified as described earlier. Corrected Total Cell Fluorescence (CTCF)=Integrated Density-(Area of selected cell X Mean fluorescence of background readings); (mean±SD), where **p<0.01 and […] are determined by an unpaired student t-test.
# Lipopolysaccharide (LPS), is an endotoxin, released from Gram-negative bacteria. Next, the ability of SLN128 to detect either LPS or 3-Nitropropionic acid (3-NP) induced ROS in human cells was evaluated through live-cell fluorescence imaging. LPS is detected by toll-like receptor 4 (TLR4), a broadly expressed pattern recognition receptor found both on different cell types, including glial cells, and neurons. TLR4 engagement triggers the generation of mitochondrial superoxide from electron transport complex I, which in turn promotes bacterial killing. LPS treatment also triggers increased cytokine and chemokine expression in brain thus driving inflammation. […] To this end, intracellular localization of SLN-128 in either the presence or absence of mitotracker deep red (control) was simulataneously assessed in either the LPS or 3-NP stimulated human glioblastoma U87 cells (see e.g., FIG. 4). […] The probe uptake was quantified as corrected total cell fluorescence (CTCF) using image J as described earlier. […] Uptake in brain and other critical organs was analyzed in terms of percent injected dose per gram of the tissue (% ID/g).
# [5] = tested on: reactive oxygen species (superoxide, hydroxyl radical); test: Detection of reactive oxygen species in vitro, fluorescence plate reader assay (G-GO, X-XO, SIN-1 systems); type: biochemical
# Procedure: FIG. 3 is a bar graph showing evaluation of SLN128 for detection of reactive oxygen species in vitro in accordance with the present disclosure. Data are shown as mean fluorescence intensity (arbitrary units)±SD, where ****p<0.0001 values are determined by an unpaired student t-test. (Abbreviations: G: Glucose; GOX: Glucose oxidase; HRP: Horseradish peroxidase; X: Xanthine; XO: Xanthine oxidase; SOD: Superoxide Dismutase; CAT: Catalase. All values are normalized to fluorescence output of untreated SLN128 (control). Please note response to HRP induced hydroxyl radical in GGO system, its mitigation with CAT; and response to HX-XO (superoxide) and its intervention with SOD.
# Of note, superoxide can originate from numerous sources in vivo, including the mitochondrial electron transport chain and NADPH oxidase(s), which are activated under conditions of inflammation, ischemia, and tissue injury. […] Therefore, the ability to detect elevated ROS in patients could provide a better understanding of relationships between ROS, tissue injury, and disease staging including information on signaling cascade that promote inflammation. To measure ROS production, various methods that use colorimetry, chemiluminescence, and fluorescence have been deployed, While xanthine-xanthine oxidase (X-XO) and SIN-1 have been used for production of superoxide and nitric oxide (wherein the combination produces peroxynitrite), respectively, the glucose-glucose oxidase (G-GO) system is useful for production of hydrogen peroxide. Employing concentrations of SLN128 and G-GO, and X-XO in vitro conditions described previously, the ability of SLN-128 or 12 to detect different reactive oxygen species at 37° C. in PBS was evaluated under physiological conditions (pH 7.2) and normalized by background fluorescence output of untreated SLN128 as a control using a fluorescence plate reader assay (see e.g., FIG. 3). […] Under both conditions, oxidation of the probe was neutralized by the addition of superoxide dismutase (SOD) (see e.g., FIG. 3). […] (see e.g., FIG. 3).
# [6] = PBS with 1.0% ethanol, excited with a 402 nm laser
structure (smiles),measurement,setting,value
CNc1ccc(/C=C/c2ccc(OCCOCCOCC[18F])cc2)cc1 [[^18F]-Florbetaben],brain uptake,[1]; 2 min,4.77 % ID/g
same,brain uptake,[1]; 4 h,0.95 % ID/g
same,brain uptake ratio 2 min/4 h,[1],5.0
COc1ccc2c(c1)N(C)C(c1ccc(O)c(OCCF)c1)c1cccn1-2 (stereo not shown) [SLN128],broad emission peak,[2]; [6],520-540 nm
same,emission maximum,[2]; [6],530 nm
same,enhancement of mean fluorescence intensity following oxidation,[2]; following its oxidation,4 fold
same,localization in brain sections ex vivo,[3],localizes in microglial cells and neurons; also recorded: maps markers for microglial and neuronal cells
same,fluorescence in LPS- or 3-NP stimulated cells compared to untreated U87 cells,[4]; LPS or 3-NP stimulation,higher fluorescence
same,intracellular localization,[4],penetrates into mitochondria of U87 cells
same,intracellular localization,[4]; listed as SLN 128,maps both mitotracker and mitoSOX
same,monitoring of therapeutic effect (CTCF),[4]; presence or absence of resveratrol,ability to monitor resveratrol-induced mitigation of ROS
same,reactive oxygen species detected,[5],both superoxide and hydroxyl radical
same,fluorescence response in G-GO system,"[5]; 37° C., PBS pH 7.2",only a slight increase in fluorescence
same,response to HRP in G-GO system (hydroxyl radical),"[5]; 37° C., PBS pH 7.2, normalized to untreated SLN128",10 fold
same,detection of superoxide,"[5]; xanthine oxidase/xanthine or SIN-1 with CPTIO, neutralized by SOD",ability to detect superoxide
"CNc1ccc(/C=C/c2ccc(OCCOCCOCC[18F])nc2)cc1 [[^18F]-AVID-45, [^18F]-Florbetapir]",brain uptake,[1]; 2 min,7.33±1.54 % ID/g
same,brain uptake,[1]; 2 h,1.80±0.07 % ID/g
same,brain uptake ratio 2 min/2 h,[1],4.07
COCOc1ccc(-c2c3cccn3c3ccc(OC)cc3[n+]2C)cc1OCCF.[I-] [compound 15],emission shift following oxidation,[2]; oxidized form,580 nm
